{"source": "patent US20060088886A1", "about": "“Topiramate analogs” (priority 2004, published 2006)", "key": {"[1]": {"tested_on": "anti-topiramate antibodies prepared with immunogen (18)", "assay": "ELISA binding inhibition study (avidity), free topiramate vs coated antigens", "design": "species or system Rabbit", "settings": "for Abs Antigen 16 / Abs Antigen 19 / Abs Antigen 20: 405 nm", "protocol": "ELISA plates for use in an ELISA assay are prepared in order to study the polyclonal antibody prepared as described in Example 21. As such, various topiramate antigens (16), (19), and (20) are coated on different ELISA plates before being subjected to the anti-topiramate antibody and competing free topiramate. More particularly, the topiramate antigens are diluted in coating buffer, and then added to the wells of ELISA plate. After the ELISA plate is inculcated for 60 min at 37° C., the solvent in the coating buffer is decanted and a blocking buffer is added to the plate. The plate is incubated again for 60 min at 37° C., and the solvent in the blocking buffer is decanted from the plate. The ELISA plate is then stored with the blocking agent in the wells at 2-8° C. for up to 1 week. The avidity of the anti-topiramate antibodies prepared with immunogen (17) for topirainate analogs are determined by a binding inhibition study. As such, samples are prepared in 1 mL of PBS at pH 7.4 with 0.1% BSA. A composition having 30% Bmax titer or 50% Bmax titer is used to divide the obtained titer value into approximately half the titer value. Using 30% Bmax, an antibody titer of 1:10000 is diluted to 1:5000 during the sample preparation stage. About 50 μL of topiramate at different concentrations or calibrator values, (0, 2, 4, 8, 16, 32 μg/ml) are then applied to a plate as prepared in accordance with Example 22. About 50 μL of the diluted antibody is dispensed into the plate, and the compositions in the plate are mixed for 1 min on a horizontal plate shaker. The plate is characterized by a first row not containing topiramate or anti-topiramate antibody, wherein the first row is used as a negative control. A second row not containing topiramate is used as the positive control. The plate is incubated for 60 min, and washed three times with 250 μL of PBS at pH 7.4 with 0.05% tween. About 125 μL of a diluted second antibody conjugate such as antigens (16), (19), or (20), in PBS at pH 7.4 is added to each well of the plate. Titer is determined experimentally by the plate being incubated for 60 min at 37° C. and washed 3 times with 250 μL PBS, pH 7.4 with 0.05% tween. Subsequently, about 125 μL of ABTS substrate is added to each well of the plate and incubated for 20 min. The avidity of the anti-topiramate antibodies prepared with immunogen (18) for topiramate analogs is determined by a binding inhibition study performed with an experimental protocol substantially similar as in Example 24."}, "[2]": {"settings": "cited from earlier work"}, "[3]": {"settings": "Rabbit No. 5490, topiramate 2 μg/ml"}, "[4]": {"settings": "Rabbit No. 5490, topiramate 4 μg/ml"}, "[5]": {"settings": "Rabbit No. 5490, topiramate 8 μg/ml"}, "[6]": {"settings": "Rabbit No. 5490, topiramate 16 μg/ml"}, "[7]": {"settings": "Rabbit No. 5490, topiramate 32 μg/ml"}, "[8]": {"settings": "Rabbit No. 5495, topiramate 2 μg/ml"}, "[9]": {"settings": "Rabbit No. 5495, topiramate 4 μg/ml"}, "[10]": {"settings": "Rabbit No. 5495, topiramate 8 μg/ml"}, "[11]": {"settings": "Rabbit No. 5495, topiramate 16 μg/ml"}, "[12]": {"settings": "Rabbit No. 5495, topiramate 32 μg/ml"}, "[13]": {"settings": "dose escalation add-on studies, morning trough serum"}}}
{"smiles": "CC1(C)O[C@@H]2[C@@H](CO[C@@]3(COS(N)(=O)=O)OC(C)(C)O[C@@H]23)O1", "note": "[Topiramate, 2,3:4,5-di-O-isopropylidene-beta-D-fructopyranose sulfamate]", "values": [{"measurement": "B/Bo Antigen 16", "setting": "[1]; [3]", "result": 0.35}, {"measurement": "B/Bo Antigen 19", "setting": "[1]; [3]", "result": 0.18}, {"measurement": "B/Bo Antigen 20", "setting": "[1]; [3]", "result": 0.63}, {"measurement": "Abs Antigen 16", "setting": "[1]; [3]", "result": 0.25}, {"measurement": "Abs Antigen 19", "setting": "[1]; [3]", "result": 0.10}, {"measurement": "Abs Antigen 20", "setting": "[1]; [3]", "result": 0.25}, {"measurement": "B/Bo Antigen 16", "setting": "[1]; [4]", "result": 0.28}, {"measurement": "B/Bo Antigen 19", "setting": "[1]; [4]", "result": 0.10}, {"measurement": "B/Bo Antigen 20", "setting": "[1]; [4]", "result": 0.60}, {"measurement": "Abs Antigen 16", "setting": "[1]; [4]", "result": 0.20}, {"measurement": "Abs Antigen 19", "setting": "[1]; [4]", "result": 0.06}, {"measurement": "Abs Antigen 20", "setting": "[1]; [4]", "result": 0.24}, {"measurement": "B/Bo Antigen 16", "setting": "[1]; [5]", "result": 0.21}, {"measurement": "B/Bo Antigen 19", "setting": "[1]; [5]", "result": 0.07}, {"measurement": "B/Bo Antigen 20", "setting": "[1]; [5]", "result": 0.55}, {"measurement": "Abs Antigen 16", "setting": "[1]; [5]", "result": 0.15}, {"measurement": "Abs Antigen 19", "setting": "[1]; [5]", "result": 0.04}, {"measurement": "Abs Antigen 20", "setting": "[1]; [5]", "result": 0.22}, {"measurement": "B/Bo Antigen 16", "setting": "[1]; [6]", "result": 0.17}, {"measurement": "B/Bo Antigen 19", "setting": "[1]; [6]", "result": 0.06}, {"measurement": "B/Bo Antigen 20", "setting": "[1]; [6]", "result": 0.53}, {"measurement": "Abs Antigen 16", "setting": "[1]; [6]", "result": 0.12}, {"measurement": "Abs Antigen 19", "setting": "[1]; [6]", "result": 0.03}, {"measurement": "Abs Antigen 20", "setting": "[1]; [6]", "result": 0.21}, {"measurement": "B/Bo Antigen 16", "setting": "[1]; [7]", "result": 0.14}, {"measurement": "B/Bo Antigen 19", "setting": "[1]; [7]", "result": 0.04}, {"measurement": "B/Bo Antigen 20", "setting": "[1]; [7]", "result": 0.50}, {"measurement": "Abs Antigen 16", "setting": "[1]; [7]", "result": 0.10}, {"measurement": "Abs Antigen 19", "setting": "[1]; [7]", "result": 0.02}, {"measurement": "Abs Antigen 20", "setting": "[1]; [7]", "result": 0.20}, {"measurement": "B/Bo Antigen 16", "setting": "[1]; [8]", "result": 0.35}, {"measurement": "B/Bo Antigen 19", "setting": "[1]; [8]", "result": 0.20}, {"measurement": "B/Bo Antigen 20", "setting": "[1]; [8]", "result": 0.53}, {"measurement": "Abs Antigen 16", "setting": "[1]; [8]", "result": 0.25}, {"measurement": "Abs Antigen 19", "setting": "[1]; [8]", "result": 0.13}, {"measurement": "Abs Antigen 20", "setting": "[1]; [8]", "result": 0.18}, {"measurement": "B/Bo Antigen 16", "setting": "[1]; [9]", "result": 0.39}, {"measurement": "B/Bo Antigen 19", "setting": "[1]; [9]", "result": 0.12}, {"measurement": "B/Bo Antigen 20", "setting": "[1]; [9]", "result": 0.50}, {"measurement": "Abs Antigen 16", "setting": "[1]; [9]", "result": 0.28}, {"measurement": "Abs Antigen 19", "setting": "[1]; [9]", "result": 0.08}, {"measurement": "Abs Antigen 20", "setting": "[1]; [9]", "result": 0.17}, {"measurement": "B/Bo Antigen 16", "setting": "[1]; [10]", "result": 0.21}, {"measurement": "B/Bo Antigen 19", "setting": "[1]; [10]", "result": 0.08}, {"measurement": "B/Bo Antigen 20", "setting": "[1]; [10]", "result": 0.47}, {"measurement": "Abs Antigen 16", "setting": "[1]; [10]", "result": 0.15}, {"measurement": "Abs Antigen 19", "setting": "[1]; [10]", "result": 0.05}, {"measurement": "Abs Antigen 20", "setting": "[1]; [10]", "result": 0.16}, {"measurement": "B/Bo Antigen 16", "setting": "[1]; [11]", "result": 0.17}, {"measurement": "B/Bo Antigen 19", "setting": "[1]; [11]", "result": 0.06}, {"measurement": "B/Bo Antigen 20", "setting": "[1]; [11]", "result": 0.41}, {"measurement": "Abs Antigen 16", "setting": "[1]; [11]", "result": 0.12}, {"measurement": "Abs Antigen 19", "setting": "[1]; [11]", "result": 0.04}, {"measurement": "Abs Antigen 20", "setting": "[1]; [11]", "result": 0.14}, {"measurement": "B/Bo Antigen 16", "setting": "[1]; [12]", "result": 0.14}, {"measurement": "B/Bo Antigen 19", "setting": "[1]; [12]", "result": 0.03}, {"measurement": "B/Bo Antigen 20", "setting": "[1]; [12]", "result": 0.32}, {"measurement": "Abs Antigen 16", "setting": "[1]; [12]", "result": 0.10}, {"measurement": "Abs Antigen 19", "setting": "[1]; [12]", "result": 0.02}, {"measurement": "Abs Antigen 20", "setting": "[1]; [12]", "result": 0.11}, {"measurement": "serum concentration at which a reduction in seizure control was seen", "setting": "[2]; [13]", "result": "greater than 75 μmol/L"}, {"measurement": "serum concentration with significant increase in side effects", "setting": "[2]; [13]", "result": "> 60", "unit": "µM"}, {"measurement": "systemic topiramate concentrations", "setting": "[2]; patients receiving higher doses, up to 2000 mg", "result": "≤ 80", "unit": "µmol/L"}]}
